In publication PMC9603901, “Therapeutic Potential of Antimicrobial Peptide PN5 against Multidrug-Resistant E. coli and Anti-Inflammatory Activity in a Septic Mouse Model” (Microbiology Spectrum, 2022):
Read-outs that look alike come from different tables or passages of the source. Where no end group is shown, it is not given here.

How the values were obtained:
E. coli ATCC 25922 = test: microbe, parasite or virus in culture; type: cell-based, Escherichia coli; details: LB, 2 × 10^5 CFU mL^−1, 18 to 24 h, 37°C, three independent experiments
Experimental: (§1) Bacterial cells were cultured at 37°C in the appropriate culture media with shaking (180 rpm). Luria-Bertani broth (LB) (244620; BD Difco) was used for E. coli ATCC 25922, ASEC strains, and B. subtilis KCTC 2217. Nutrient broth (NB) (234000; BD Difco) was used for P. aeruginosa ATCC 27853, S. Typhimurium KCTC 1926, and A. baumannii KCTC 2508. Tryptic soy broth (TSB) (211825; BD Difco) was used for S. aureus ATCC 25923. Finally, brain heart infusion (BHI) (237500; BD Difco) was used for L. monocytogenes KCTC 3710. The antimicrobial activity of each peptide was determined using microdilution assays. To this end, 2-fold serial dilution series of each peptide (from 1 to 64 μM) were added to duplicate media with 10 mM sodium phosphate buffer (pH 7.4). Fifty microliters of the peptide and antibiotic solution was added to each well of a 96-well plate (32096, surface nontreatment; SPL Life Sciences). Then, 50 μL of 2 × 10^5 CFU mL^−1 of bacteria was added to each well, and the samples were incubated for 18 to 24 h without shaking at 37°C.

MDR E. coli ASEC 10 [1] = test: microbe, parasite or virus in culture; type: cell-based, Escherichia coli; details: microdilution, LB, 18 to 24 h, 37°C, three independent experiments
Experimental: as §1

MDR E. coli ASEC 11 = test: microbe, parasite or virus in culture; type: cell-based, Escherichia coli; details: microdilution, LB, 18 to 24 h, 37°C, three independent experiments
Experimental: as §1

MDR E. coli ASEC 12 [2] = test: microbe, parasite or virus in culture; type: cell-based, Escherichia coli; details: microdilution, LB, 18 to 24 h, 37°C, three independent experiments
Experimental: as §1

MDR E. coli ASEC 13 [3] = test: microbe, parasite or virus in culture; type: cell-based, Escherichia coli; details: microdilution, LB, 18 to 24 h, 37°C, three independent experiments
Experimental: as §1

MDR E. coli ASEC 14 = test: microbe, parasite or virus in culture; type: cell-based, Escherichia coli; details: microdilution, LB, 18 to 24 h, 37°C, three independent experiments
Experimental: as §1

MDR E. coli ASEC 15 = test: microbe, parasite or virus in culture; type: cell-based, Escherichia coli; details: microdilution, LB, 18 to 24 h, 37°C, three independent experiments
Experimental: as §1

MDR E. coli ASEC 16 = test: microbe, parasite or virus in culture; type: cell-based, Escherichia coli; details: microdilution, LB, 18 to 24 h, 37°C, three independent experiments
Experimental: as §1

MDR E. coli ASEC 17 = test: microbe, parasite or virus in culture; type: cell-based, Escherichia coli; details: microdilution, LB, 18 to 24 h, 37°C, three independent experiments
Experimental: as §1

MDR E. coli ASEC 18 = test: microbe, parasite or virus in culture; type: cell-based, Escherichia coli; details: microdilution, LB, 18 to 24 h, 37°C, three independent experiments
Experimental: as §1

MDR E. coli ASEC 19 = test: microbe, parasite or virus in culture; type: cell-based, Escherichia coli; details: microdilution, LB, 18 to 24 h, 37°C, three independent experiments
Experimental: as §1

MDR E. coli ASEC 2 [4] = test: microbe, parasite or virus in culture; type: cell-based, Escherichia coli; details: microdilution, LB, 18 to 24 h, 37°C, three independent experiments
Experimental: as §1

MDR E. coli ASEC 3 [5] = test: microbe, parasite or virus in culture; type: cell-based, Escherichia coli; details: microdilution, LB, 18 to 24 h, 37°C, three independent experiments
Experimental: as §1

MDR E. coli ASEC 4 [6] = test: microbe, parasite or virus in culture; type: cell-based, Escherichia coli; details: microdilution, LB, 18 to 24 h, 37°C, three independent experiments
Experimental: as §1

MDR E. coli ASEC 5 = test: microbe, parasite or virus in culture; type: cell-based, Escherichia coli; details: microdilution, LB, 18 to 24 h, 37°C, three independent experiments
Experimental: as §1

MDR E. coli ASEC 6 [7] = test: microbe, parasite or virus in culture; type: cell-based, Escherichia coli; details: microdilution, LB, 18 to 24 h, 37°C, three independent experiments
Experimental: as §1

MDR E. coli ASEC 7 = test: microbe, parasite or virus in culture; type: cell-based, Escherichia coli; details: microdilution, LB, 18 to 24 h, 37°C, three independent experiments
Experimental: as §1

MDR E. coli ASEC 8 [8] = test: microbe, parasite or virus in culture; type: cell-based, Escherichia coli; details: microdilution, LB, 18 to 24 h, 37°C, three independent experiments
Experimental: as §1

MDR E. coli ASEC 9 = test: microbe, parasite or virus in culture; type: cell-based, Escherichia coli; details: microdilution, LB, 18 to 24 h, 37°C, three independent experiments
Experimental: as §1

MDR E. coli ASEC 2 [9] = system: MDR E. coli ASEC 2; parameters: method as in Asan hospital; key to susceptibility category: S: susceptible; R: resistant; I: intermediate; details: ref Asan hospital, cited from earlier work
MDR E. coli ASEC 3 [10] = system: MDR E. coli ASEC 3; parameters: method as in Asan hospital; key to susceptibility category: S: susceptible; R: resistant; I: intermediate; details: ref Asan hospital, cited from earlier work
MDR E. coli ASEC 4 [11] = system: MDR E. coli ASEC 4; parameters: method as in Asan hospital; key to susceptibility category: S: susceptible; R: resistant; I: intermediate; details: ref Asan hospital, cited from earlier work
MDR E. coli ASEC 6 [12] = system: MDR E. coli ASEC 6; parameters: method as in Asan hospital; key to susceptibility category: S: susceptible; R: resistant; I: intermediate; details: ref Asan hospital, cited from earlier work
MDR E. coli ASEC 8 [13] = system: MDR E. coli ASEC 8; parameters: method as in Asan hospital; key to susceptibility category: S: susceptible; R: resistant; I: intermediate; details: ref Asan hospital, cited from earlier work
MDR E. coli ASEC 10 [14] = system: MDR E. coli ASEC 10; parameters: method as in Asan hospital; key to susceptibility category: S: susceptible; R: resistant; I: intermediate; details: ref Asan hospital, cited from earlier work
MDR E. coli ASEC 12 [15] = system: MDR E. coli ASEC 12; parameters: method as in Asan hospital; key to susceptibility category: S: susceptible; R: resistant; I: intermediate; details: ref Asan hospital, cited from earlier work
MDR E. coli ASEC 13 [16] = system: MDR E. coli ASEC 13; parameters: method as in Asan hospital; key to susceptibility category: S: susceptible; R: resistant; I: intermediate; details: ref Asan hospital, cited from earlier work
[17] = Escherichia coli, read-out: MIC

C[C@@H](O)[C@H]1C(=O)N2C(C(=O)O)=C(S[C@@H]3CN[C@H](C(=O)N(C)C)C3)[C@H](C)[C@H]12 [Meropenem]
> 32 µM: MIC (MDR E. coli ASEC 2 [4]; [17]) | MIC (MDR E. coli ASEC 3 [5]; [17]) | MIC (MDR E. coli ASEC 4 [6]; [17])
R: susceptibility category (MDR E. coli ASEC 2 [9]; ASEC 2) | susceptibility category (MDR E. coli ASEC 3 [10]; ASEC 3) | susceptibility category (MDR E. coli ASEC 4 [11]; ASEC 4) | susceptibility category (MDR E. coli ASEC 6 [12]; ASEC 6) | susceptibility category (MDR E. coli ASEC 12 [15]; ASEC 12) | susceptibility category (MDR E. coli ASEC 13 [16]; ASEC 13)
2 µM: MIC (MDR E. coli ASEC 13 [3]; [17])
S: susceptibility category (MDR E. coli ASEC 8 [13]; ASEC 8) | susceptibility category (MDR E. coli ASEC 10 [14]; ASEC 10)
8 µM: MIC (MDR E. coli ASEC 14; [17]) | MIC (MDR E. coli ASEC 19; [17]) | MIC (MDR E. coli ASEC 5; [17])
> 8 µg/mL: MIC (MDR E. coli ASEC 2 [9]; ASEC 2 (NDM-7), resistance information of clinical isolate) | MIC (MDR E. coli ASEC 3 [10]; ASEC 3 (NDM-5), resistance information of clinical isolate) | MIC (MDR E. coli ASEC 4 [11]; ASEC 4 (ESBL), resistance information of clinical isolate) | MIC (MDR E. coli ASEC 6 [12]; ASEC 6 (ESBL), resistance information of clinical isolate) | MIC (MDR E. coli ASEC 12 [15]; ASEC 12 (AmpC), resistance information of clinical isolate) | MIC (MDR E. coli ASEC 13 [16]; ASEC 13 (AmpC), resistance information of clinical isolate)
< 1 µM: MIC (E. coli ATCC 25922; Escherichia coli, ATCC25922, microdilution, read-out: MIC) | MIC (MDR E. coli ASEC 10 [1]; [17]) | MIC (MDR E. coli ASEC 11; [17]) | MIC (MDR E. coli ASEC 15; [17]) | MIC (MDR E. coli ASEC 16; [17]) | MIC (MDR E. coli ASEC 17; [17]) | MIC (MDR E. coli ASEC 18; [17]) | MIC (MDR E. coli ASEC 7; [17]) | MIC (MDR E. coli ASEC 8 [8]; [17]) | MIC (MDR E. coli ASEC 9; [17])
16 µM: MIC (MDR E. coli ASEC 12 [2]; [17]) | MIC (MDR E. coli ASEC 6 [7]; [17])
<= 1 μg mL-1: MIC (MDR E. coli ASEC 8 [13]; ASEC 8 (ESBL), resistance information of clinical isolate) | MIC (MDR E. coli ASEC 10 [14]; ASEC 10 (ESBL), resistance information of clinical isolate)

FKFLARTGKFL-NH2 [PN5]
4 (5.30) μM: MIC (MDR E. coli ASEC 16) | MIC (MDR E. coli ASEC 4 [6]) | MIC (MDR E. coli ASEC 6 [7]) | MIC (MDR E. coli ASEC 8 [8])
2 (2.65) μM: MIC (MDR E. coli ASEC 11) | MIC (MDR E. coli ASEC 12 [2]) | MIC (MDR E. coli ASEC 14) | MIC (MDR E. coli ASEC 2 [4])
16 (21.22) μM: MIC (E. coli ATCC 25922; microdilution) | MIC (MDR E. coli ASEC 15) | MIC (MDR E. coli ASEC 18) | MIC (MDR E. coli ASEC 9)
8 (10.61) μM: MIC (MDR E. coli ASEC 10 [1]) | MIC (MDR E. coli ASEC 13 [3]) | MIC (MDR E. coli ASEC 17) | MIC (MDR E. coli ASEC 19) | MIC (MDR E. coli ASEC 3 [5]) | MIC (MDR E. coli ASEC 5) | MIC (MDR E. coli ASEC 7)
